From patent US10906977B2, “Enhancing the therapeutic activity of immune checkpoint inhibitor” (Maine Medical Center Research Institute, priority 2016, dated 2021) come the findings set out here.

Test [1] deals with fibroblasts. Briefly: Growth factor-induced fibroblast migration on denatured collagen. The class given is cell-based, human. As to conditions: FGF-2 20 ng/ml; FIG. 22B, 22E, 24D. As to the method:
Transwell membranes (8.0 um pore size) were coated with 5 μg/ml of native or denatured collagen for 12 hrs at […] as described previously (13). Migration buffer containing RPMI 1640, 1 mM MgCl2, 0.2 mM MnCl2 and 0.5% BSA in the presence or absence of 5× concentrated serum free SKOV-3 CM or 20 ng/ml FGF-2 was placed in the lower chambers. SKOV-3 or fibroblasts (1×105) were resuspended in migration buffer containing RPMI 1640, 1 mM MgCl2, 0.2 mM MnCl2 and 0.5% BSA in the presence or absence of antibodies directed to the HU177 epitope, or α10β1, (10 μg/ml) or 100 uM of the MEK inhibitor ([…]). Cells were added to the top chamber and allowed to migrate from 2 to 4 hrs. Cells remaining on the top of the membranes were removed and cells that had migrated to the underside of the membrane were quantified by direct cell counts of crystal violet stained cells or by measuring the optical density of eluted cell-associated crystal violet dye as previously described (15). Assays were completed at least 3×.

In test [2] the test system is chick chorioallantoic membrane (CAM). In words: Chick CAM angiogenesis induced by soluble RGD collagen peptides. The class given is in vivo. As to conditions: soluble peptide; FIG. 5C. As to the method:
(§1) The chick chorioallantoic membrane (CAM) assays were carried out with some modifications (19). For all experiments CAMs of 10-day-old chick embryos obtained from Charles River (North Franklin, Conn.) were separated from the shell membrane. Filter discs either non-treated (inflammation assays) pretreated (angiogenesis assays) with cortisone acetate (3.0 mg/ml) containing RPMI only or FGF-2 (40 ng). CAMs were either non-treated or treated topically with Mab XL313, XL166 or a non-specific control antibody (10 μg/embryo every 24 h for three consecutive treatments). […] At the end of the incubation period the embryos were sacrificed and the CAM tissues were analyzed. Angiogenesis was quantified by counting the number of angiogenic branching blood vessels within the area of the filter disc. The angiogenic index was determined by subtracting the mean number of blood vessel branch points from untreated CAMs from each experimental condition. Eight to twelve embryos were used per condition and experiments were repeated at least three times.

Test [3] shares this test system. In words: Chick CAM inflammation induced by soluble RGD collagen peptides. The class given is in vivo. As to conditions: FIG. 5D. Here is the method:
as §1

Test [4] has as its system human microvascular endothelial cells (HMVEC). Briefly: Cell adhesion to immobilized collagen RGD peptides. The class given is cell-based. As to conditions: peptide immobilized 100 μg/ml. Here is the method: (§2) RGD peptides (P-1, P-2, P-3, P-4, P-5, and P-C) were immobilized (100 μg/ml) to wells. HUVEC, HMVEC, HRMVEC, and HDF cells were suspended in adhesion buffer (RPMI containing 1 mM MgCl2, 0.2 mM MnCl2 and 0.5% BSA) and 1×10^5 cells were seeded into the wells in the presence or absence of P4C10, LM609, P1F6 or control antibodies (100 μg/ml). Cells were allowed to attach for 25 min at 37° C. Media containing non-attached cells was aspirated and attached cells were washed with PBS and stained with crystal violet. Cell adhesion was quantified by measuring the optical density of eluted dye. Adhesion assays were completed at least three times with triplicate wells.

In test [5] the test system is human umbilical vein endothelial cell (HUVEC). Briefly: Cell adhesion to immobilized collagen RGD peptides. As to conditions: peptide immobilized 100 μg/ml; FIG. 1A. The class given is cell-based. As to the method: as §2
Test [6] has as its system human dermal fibroblasts. In words: Cell adhesion to immobilized collagen RGD peptides. It is filed as cell-based. As to conditions: peptide immobilized 100 μg/ml. Here is the method:
as §2

Test [7] has as its system human retinal microvascular endothelial cells (HRMVEC). Briefly: Cell adhesion to immobilized collagen RGD peptides. It is filed as cell-based. As to conditions: peptide immobilized 100 μg/ml. As to the method: as §2
Test [8] concerns chick chorioallantoic membrane (CAM). In words: Chick CAM inflammation assay, FGF-2 induced, no cortisone acetate. The class given is in vivo. Here is the method:
The chick chorioallantoic membrane (CAM) assays were carried out with some modifications (19). For all experiments CAMs of 10-day-old chick embryos obtained from Charles River (North Franklin, Conn.) were separated from the shell membrane. Filter discs either non-treated (inflammation assays) pretreated (angiogenesis assays) with cortisone acetate (3.0 mg/ml) containing RPMI only or FGF-2 (40 ng). CAMs were either non-treated or treated topically with Mab XL313, XL166 or a non-specific control antibody (10 μg/embryo every 24 h for three consecutive treatments). For peptide induction experiments, CAMs were stimulated with 100 ng/ml of the RGD peptides (P-1, P-2, P-C) in the presence or absence of the P38MAPK inhibitor, SB202190 (10 μM). At the end of the incubation period the embryos were sacrificed and the CAM tissues were analyzed. Angiogenesis was quantified by counting the number of angiogenic branching blood vessels within the area of the filter disc. The angiogenic index was determined by subtracting the mean number of blood vessel branch points from untreated CAMs from each experimental condition. Eight to twelve embryos were used per condition and experiments were repeated at least three times.
CAMs examined for accumulation of granulation tissue were harvested, fixed in 4% PFA and paraffin embedded and sectioned (4 μm) and stained with Giemsa. CAM tissues analyzed via immunofluorescence were harvested, embedded with OCT, snap frozen and sectioned ([…]). Frozen sections were fixed in 50% methanol/50% acetone, air dried and blocked with 2.5% BSA for 1 h at 37° C. For expression of the XL313 and XL166 epitopes as well as monocyte/macrophages, FGF-2 stimulated CAM tissues were stained with Mabs XL313, XL166 (50 μg/ml) or KUL1 (1:250) and then incubated with Alexa-488 labeled secondary antibodies (1:2000 dilution). […] Using a similar strategy, sections of RGD peptide-treated CAM tissues were analyzed for phosphorylated-P38MAPK in angiogenic vessels by co-incubation of anti-phospho-P38MAPK (1:50) and anti-vWf (1:500) antibodies. […]

Test [9] relates to XL313 epitope. Briefly: Circulating Mab XL313 reactive epitope in chick embryo serum (solid-phase ELISA). It is filed as in vivo. As to conditions: serum collected three days after FGF-2 stimulation; FIG. 5A. From the text:
FIG. 5A-FIG. 5D are bar graphs depicting the induction of angiogenesis and inflammation in vivo by soluble RGDKGE (SEQ ID NO: 1) but not a related RGDAPG (SEQ ID NO: 11) containing collagen epitope. FIG. 5A is a bar graph depicting serum from chick embryos in which the CAMs had been either not stimulated (NT) or stimulated with FGF-2 was collected. Relative levels of circulating Mab XL313 reactive epitope were quantified by solid-phase ELISA. Data represent mean Mab XL313 reactivity±S.E (N=12 to 13). FIG. 5B is a bar graph depicting quantification of dose dependent induction of angiogenesis by RGDKGE (SEQ ID NO: 1) containing collagen peptide P-2. […] FIG. 5C is a bar graph depicting quantification of CAM angiogenesis associated with RGD containing collagen peptides P-1 (KGDRGDAPG; SEQ ID NO: 2), P-2 (QGPRGDKGE; SEQ ID NO: 3) or control peptide P-C (QGPSGSPGE; SEQ ID NO: 4). […] FIG. 5D is a bar graph depicting the quantification of CAM inflammation associated with RGD containing collagen peptides P-1 (KGDRGDAPG; SEQ ID NO: 2), P-2 (QGPRGDKGE; SEQ ID NO: 3) or control peptide P-C (QGPSGSPGE (SEQ ID NO: 4)). […]
Due to the differential expression and bio-distribution of the RGDKGE (SEQ ID NO: 1) epitope in angiogenic CAM tissues and its expression in macrophage-conditioned medium, it was determined whether a soluble circulating form of this RGDKGE (SEQ ID NO: 1) epitope could be generated. […]

Test [10] addresses T1, integrin αvβ3 on cells (HUVEC endothelial cells, M21 melanoma cells, human T-cells) (human, UniProt P06756 31-1048; P05106 27-788).
T1 construct: whole, on cells; Endogenous receptor on the cells used in adhesion and signalling assays; also called β3 integrin
In words: HUVEC adhesion to immobilized peptides with function blocking anti-integrin antibodies. Here is the method: as §2, with “µg/ml)” for “μg/ml)”, “µg/ml).” for “μg/ml).”
Example 8: Collagen Peptide P-2 Binds and Activates αvβ3 and Stimulates P38MAPK Activation in a Src Dependent Manner It is well established that multiple integrins recognize RGD amino acid motifs within ECM proteins. However, the ability of an integrin to bind distinct RGD epitopes depends in part on its orientation within the parent molecule and the C-terminal amino acid sequences flanking the RGD motif (25-27). Potential cell surface receptors that mediate interactions with the RGDKGE (SEQ ID NO: 1) containing collagen P-2 peptide were identified. The ability of endothelial cells to bind the RGD collagen peptides P-1 and P-2 in the presence or absence of function blocking anti-integrin antibodies was examined.

Test [11] has as its target T2, integrin αvβ3 (recombinant) (UniProt P06756 31-992; P05106 27-718).
T2 construct: Bought recombinant integrin; also called recombinant integrin receptor αvβ3
In words: solid-phase binding assay, integrin on immobilized PGF peptide (100 ug/ml). As to the method: Plates were coated with 25 µg/ml of native or denatured (boiled 15 minutes) collagen. Collagen epitope peptide PGF and Cont-peptides were immobilized at 100 ug/ml. Integrins (0-2.0 µg/ml) were diluted in binding buffer containing 20 mM Tris, 15 mM NaCl, 1 mM MgCl2, 0.2 mM MnCl2, 0.5% BSA pH 7.4 as described (13). Integrins were allowed to bind for 1 hr and plates washed and incubated with anti-integrin antibodies (1:100 dilution) for 1 hr. Plates were washed and incubated with HRP-labeled secondary antibodies (1:5000 dilution). In a second assay, integrins (0.5 µg/ml) were coated in binding buffer and plates were washed, blocked as before and denatured (boiled 15 minutes) collagen was added (0-10.0 µg/ml). Denatured collagen was detected with anti-collagen antibody (1:1000). For integrin blocking ELISAs, wells were coated with denatured collagen and pre-treated (0.1 µg/ml) with anti-HU177 or control antibody. Following washing, wells were incubated with integrins (2.0 µg/ml) and binding was detected as described. Assays were carried out at least 3 times.

T2 sequence (P06756 31-992 limits assumed, chain 1 of 2): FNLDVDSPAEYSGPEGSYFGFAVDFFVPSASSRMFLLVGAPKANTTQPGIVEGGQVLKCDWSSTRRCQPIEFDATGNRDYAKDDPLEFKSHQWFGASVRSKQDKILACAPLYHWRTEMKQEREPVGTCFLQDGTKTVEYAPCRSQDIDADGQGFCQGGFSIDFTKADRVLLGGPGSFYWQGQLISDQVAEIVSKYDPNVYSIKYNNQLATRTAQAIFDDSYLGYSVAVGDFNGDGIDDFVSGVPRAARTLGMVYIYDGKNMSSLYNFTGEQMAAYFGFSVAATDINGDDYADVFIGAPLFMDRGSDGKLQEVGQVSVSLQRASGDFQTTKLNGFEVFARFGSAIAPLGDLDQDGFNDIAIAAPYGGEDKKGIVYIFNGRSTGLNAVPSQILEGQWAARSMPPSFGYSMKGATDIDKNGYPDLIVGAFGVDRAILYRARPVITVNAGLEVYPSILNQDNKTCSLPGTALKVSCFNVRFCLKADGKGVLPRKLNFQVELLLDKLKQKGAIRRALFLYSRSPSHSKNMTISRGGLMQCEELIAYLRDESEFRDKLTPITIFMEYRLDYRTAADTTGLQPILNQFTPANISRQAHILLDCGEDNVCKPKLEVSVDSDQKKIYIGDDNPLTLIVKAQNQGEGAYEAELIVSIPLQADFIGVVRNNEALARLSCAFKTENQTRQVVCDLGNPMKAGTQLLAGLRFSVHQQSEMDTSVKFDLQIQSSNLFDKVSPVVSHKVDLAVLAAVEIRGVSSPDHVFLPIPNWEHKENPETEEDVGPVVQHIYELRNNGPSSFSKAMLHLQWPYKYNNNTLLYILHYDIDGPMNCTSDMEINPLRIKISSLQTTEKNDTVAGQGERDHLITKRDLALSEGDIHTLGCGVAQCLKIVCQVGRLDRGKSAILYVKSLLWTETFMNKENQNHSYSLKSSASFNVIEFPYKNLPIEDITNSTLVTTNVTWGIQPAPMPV
T2 sequence (P05106 27-718 limits assumed, chain 2 of 2): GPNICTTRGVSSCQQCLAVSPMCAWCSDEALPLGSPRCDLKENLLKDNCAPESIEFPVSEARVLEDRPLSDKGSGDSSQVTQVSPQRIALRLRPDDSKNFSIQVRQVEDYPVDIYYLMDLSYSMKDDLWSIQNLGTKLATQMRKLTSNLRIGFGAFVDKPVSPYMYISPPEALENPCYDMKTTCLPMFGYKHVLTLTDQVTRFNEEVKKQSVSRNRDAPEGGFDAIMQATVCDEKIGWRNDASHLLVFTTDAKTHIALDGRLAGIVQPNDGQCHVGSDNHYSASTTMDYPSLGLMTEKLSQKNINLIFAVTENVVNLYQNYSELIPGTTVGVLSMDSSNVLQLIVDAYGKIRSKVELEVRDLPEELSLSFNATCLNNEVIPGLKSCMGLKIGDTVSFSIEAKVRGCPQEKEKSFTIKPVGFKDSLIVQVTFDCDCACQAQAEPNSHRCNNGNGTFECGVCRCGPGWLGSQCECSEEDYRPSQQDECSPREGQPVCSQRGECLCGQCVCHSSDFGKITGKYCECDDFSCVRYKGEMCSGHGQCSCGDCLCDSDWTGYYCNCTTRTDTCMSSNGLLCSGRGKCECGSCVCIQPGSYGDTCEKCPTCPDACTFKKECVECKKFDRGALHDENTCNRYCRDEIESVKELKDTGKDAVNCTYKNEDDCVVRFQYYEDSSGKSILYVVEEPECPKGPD
T1 sequence (P06756 31-1048, chain 1 of 2): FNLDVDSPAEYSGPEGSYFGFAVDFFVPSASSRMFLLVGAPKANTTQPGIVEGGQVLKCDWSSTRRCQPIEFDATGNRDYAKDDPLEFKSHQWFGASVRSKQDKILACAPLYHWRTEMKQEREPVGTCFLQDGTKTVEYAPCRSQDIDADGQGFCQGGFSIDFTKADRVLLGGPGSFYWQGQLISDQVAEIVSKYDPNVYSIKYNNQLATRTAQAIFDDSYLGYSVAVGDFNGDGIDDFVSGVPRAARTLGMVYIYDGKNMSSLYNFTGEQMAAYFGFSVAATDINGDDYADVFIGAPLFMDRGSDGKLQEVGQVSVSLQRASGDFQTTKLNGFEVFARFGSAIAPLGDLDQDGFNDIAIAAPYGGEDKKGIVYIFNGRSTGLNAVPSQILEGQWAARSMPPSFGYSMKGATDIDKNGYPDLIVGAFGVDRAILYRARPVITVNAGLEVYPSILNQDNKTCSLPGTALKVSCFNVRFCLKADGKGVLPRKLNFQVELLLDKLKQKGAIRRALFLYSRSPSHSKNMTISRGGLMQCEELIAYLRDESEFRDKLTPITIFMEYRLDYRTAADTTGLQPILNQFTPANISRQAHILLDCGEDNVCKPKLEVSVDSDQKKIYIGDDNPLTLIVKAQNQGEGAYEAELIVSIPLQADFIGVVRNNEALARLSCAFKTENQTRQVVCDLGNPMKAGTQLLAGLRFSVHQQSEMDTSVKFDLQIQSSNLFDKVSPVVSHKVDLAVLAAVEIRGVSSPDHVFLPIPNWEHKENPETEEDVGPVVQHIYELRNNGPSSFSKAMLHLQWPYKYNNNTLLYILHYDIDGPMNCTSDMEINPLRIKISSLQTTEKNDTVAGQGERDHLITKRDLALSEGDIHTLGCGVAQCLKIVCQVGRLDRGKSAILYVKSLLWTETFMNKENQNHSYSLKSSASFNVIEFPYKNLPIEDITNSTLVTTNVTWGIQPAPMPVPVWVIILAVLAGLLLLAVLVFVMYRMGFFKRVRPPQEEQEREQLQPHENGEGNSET
T1 sequence (P05106 27-788, chain 2 of 2): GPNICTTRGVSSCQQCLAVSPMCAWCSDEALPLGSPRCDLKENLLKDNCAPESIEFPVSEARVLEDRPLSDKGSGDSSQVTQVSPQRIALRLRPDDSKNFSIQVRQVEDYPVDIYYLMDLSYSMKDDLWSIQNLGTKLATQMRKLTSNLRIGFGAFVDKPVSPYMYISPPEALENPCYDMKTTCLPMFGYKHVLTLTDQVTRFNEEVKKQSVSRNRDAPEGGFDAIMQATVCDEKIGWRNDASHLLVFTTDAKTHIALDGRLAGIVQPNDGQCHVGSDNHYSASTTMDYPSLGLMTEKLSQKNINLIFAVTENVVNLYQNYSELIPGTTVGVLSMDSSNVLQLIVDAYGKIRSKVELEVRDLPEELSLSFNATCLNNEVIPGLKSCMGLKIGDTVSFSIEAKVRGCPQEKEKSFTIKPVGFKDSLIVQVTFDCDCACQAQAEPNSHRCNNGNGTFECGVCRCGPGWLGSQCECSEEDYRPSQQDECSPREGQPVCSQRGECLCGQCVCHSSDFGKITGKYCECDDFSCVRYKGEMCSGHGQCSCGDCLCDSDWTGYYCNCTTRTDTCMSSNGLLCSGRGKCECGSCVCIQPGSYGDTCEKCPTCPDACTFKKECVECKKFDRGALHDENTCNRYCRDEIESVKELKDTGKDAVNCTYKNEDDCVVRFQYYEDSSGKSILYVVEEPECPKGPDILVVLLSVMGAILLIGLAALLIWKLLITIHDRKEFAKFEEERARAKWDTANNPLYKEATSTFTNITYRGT

Turning to `COc1cccc(-c2cc(=O)c3ccccc3o2)c1N` [MEK inhibitor (PD98059), PD98059], the “FGF-2 stimulated fibroblast migration on denatured collagen” value in test [1] is on record as “blocked”.

For the molecule “CQGPSGAPGEC [P-C, control peptide lacking the RGD tri-peptide motif, reference compound]”, the “induction of CAM angiogenesis as compared to no treatment” value in [2] was “not”. Besides, in [3], the “CAM inflammation following stimulation with peptide” value was “Minimal evidence of tissue inflammation”. Moreover, in test [4], the “HMVEC adhesion to immobilized peptide” value is given as “failed to support interactions”. Further, the “HUVEC adhesion to immobilized peptide” value in test [5] is reported as “failed to support adhesion”. In addition, the “human dermal fibroblast adhesion to immobilized peptide” value in test [6] is given as “failed to support interactions”. For the same molecule, the “HRMVEC adhesion to immobilized peptide” value in [7] is reported as “failed to support interactions”.

Take “FGF-2: Fibroblast growth factor-2 from R&D Systems, used to stimulate CAMs”: the “CAMs showing robust formation of thick granulation tissue” value in test [8] (FGF-2 stimulation in the absence of cortisone acetate, FIG. 3E) is “approximately 50%”. Besides, in test [8] (FGF-2 stimulation without cortisone acetate, FIG. 3D), the “macrophage infiltration of the CAMs, enhancement as compared to control” value is “over 2 fold”. The “increase in levels of circulating XL313 epitope” value in test [9] worked out at 2 fold.

With CKGDRGDAPGC [Synthetic collagen RGD containing peptide P-1 (CKGDRGDAPGC)], the binding result in test [10] is recorded as “binds”.

On to CPGFPGFC [Collagen PGF-peptide (CPGFPGFC), synthetic HU177 epitope], for which, in test [11], the binding result was “no binding”.
